Source: patent US20100129317A1 (priority 2006, published 2010)
“Also recorded” adds a separate entry of the source.

Key:
[1] = system: GTP levels in human cells; experiment: Intracellular GTP levels in human cells; format: cell-based; settings: for effect of treatment on GTP levels in human cells: 10 μM
[2] = system: Hantaan virus (HTNV); format: cell-based
[3] = system: Crimean Congo Hemorraghic fever virus (CCHFV); format: cell-based
[4] = biological target: T1, Human adenosine kinase (Homo sapiens, UniProt P55263); experiment: Adenosine kinase activity with selected nucleoside analogs (conversion to 5'-monophosphate, HPLC); format: biochemical; settings: 100 μM of each compound and ATP, 37° C., conversion to 5'-monophosphate by HPLC
T1 sequence (P55263 whole entry): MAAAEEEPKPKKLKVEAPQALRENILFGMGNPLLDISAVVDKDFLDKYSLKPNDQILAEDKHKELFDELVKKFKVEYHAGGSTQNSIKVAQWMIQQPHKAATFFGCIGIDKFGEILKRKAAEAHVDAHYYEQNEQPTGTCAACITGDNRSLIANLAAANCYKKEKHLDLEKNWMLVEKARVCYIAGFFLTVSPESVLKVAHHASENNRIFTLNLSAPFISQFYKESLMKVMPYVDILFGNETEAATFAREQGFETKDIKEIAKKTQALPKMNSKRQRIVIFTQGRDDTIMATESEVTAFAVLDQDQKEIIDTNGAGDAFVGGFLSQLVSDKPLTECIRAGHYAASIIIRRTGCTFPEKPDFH

[5] = system: human CEM cells; experiment: Metabolism to phosphorylated intracellular metabolites in human cells
[6] = biological target: T1, Human adenosine kinase; experiment: Radiolabeled TA-18 as substrate for human adenosine kinase; format: biochemical; settings: radiolabeled compound, 10 μM
[7] = system: influenza A/Udorn/72; format: cell-based, Influenza A H3N2

NC(=O)c1ncn([C@@H]2O[C@H](CO)[C@@H](O)[C@H]2O)n1 [ribavirin, reference compound]
effect of treatment on GTP levels in human cells [1]: decrease in GTP levels

OC[C@H]1O[C@@H](n2cnc(C(O)c3ccccc3)n2)C(O)[C@H]1O (stereo partly drawn) [TA-14, 1-(1-β-D-ribofuranosyl-[1,2,4]triazol-3-yl)-phenylmethanol]
antiviral activity against HTNV [2]: showed antiviral activity

Nc1c(C(=O)Nc2cccc(F)c2)ncn1[C@@H]1O[C@H](CO)C(O)C1O (stereo partly drawn) [RN-3, 5-amino-4-N-3-fluorophenylcarboxamide-1-β-D-ribofuranosyl-1H-imidazole]
antiviral activity against HTNV [2]: showed activity

O=[N+]([O-])c1ncn([C@@H]2O[C@H](CO)C(O)[C@@H]2O)n1 (some centres unmarked) [TA-1]
antiviral activity against CCHFV [3]: showed antiviral activity

NC(=O)CC(O)c1ncn([C@@H]2O[C@H](CO)[C@@H](O)[C@H]2O)n1 (stereo partly drawn) [TA-20, 3-(1-β-D-ribofuranosyl-[1,2,4]triazol-3-yl)-3-hydroxypropionamide]
Activity as a percent of ribavirin [4]: 5% of ribavirin

Nc1ncnc2c1c(I)cn2[C@@H]1O[C@H](CO)[C@@H](O)[C@H]1O [iodotubercidin, reference compound]
effect of adenosine kinase inhibition with iodotubercidin on the decline in GTP levels caused by TA-18 [1]: prevented the decline in GTP levels caused by TA-18
effect of adenosine kinase inhibition with iodotubercidin on the metabolism of TA-18 ([5]; human cells): inhibited the metabolism of TA-18

O=c1c2ncn([C@@H]3O[C@H](CO)[C@@H](O)[C@H]3O)c2ncn1-c1cccc(F)c1 [IA-3, N^1-(3-fluorophenyl)-inosine]
antiviral activity against HTNV [2]: showed antiviral activity

C#Cc1ncn([C@@H]2O[C@H](CO)[C@@H](O)[C@H]2O)n1 [TA-18, 3-ethynyl-1-(β-D-ribofuranosyl)-[1,2,4]triazole]
Activity as a percent of ribavirin [4]: 25% of ribavirin
substrate for human adenosine kinase (radiolabeled TA-18) [6]: it is a substrate for human adenosine kinase; also recorded: subs ate for human adenosine kinase
effect of treatment on GTP levels in human cells [1]: decline in GTP levels
potency of metabolites in reducing GTP levels compared with ribavirin metabolites ([1]; inferred from metabolite amounts and GTP decline): more potent in reducing GTP levels than the ribavirin metabolites
antiviral activity against HTNV [2]: showed antiviral activity
antiviral activity against influenza [7]: showed antiviral activity
antiviral activity against CCHFV [3]: showed antiviral activity
conversion to phosphorylated metabolites in human cells ([5]; human CEM cells, 10 μM): converted to phosphorylated metabolites

CC(=O)c1ncn([C@@H]2O[C@H](CO)[C@@H](O)[C@H]2O)n1 [TA-13, 1-(1-β-D-ribofuranosyl-[1,2,4]triazole-3-yl)-ethanone]
Activity as a percent of ribavirin [4]: 8% of ribavirin
